Like-named read-outs stand apart in the source and are kept apart here.
Experiments:
MCF-7 cells = assay: Effect of compounds on MCF-7 proliferation (E2-induced growth); format: cell-based; conditions: Homo sapiens, MCF7, 144 h, with E2 (1 nM), 6 days
Protocol: MCF-7 cells (50,000 per well) were grown in six-well plates in DME-F12 medium as described in Liu, et al., Mol. Cell Endocrinol, 87:19-28, 1992. The cells were given fresh medium plus the compounds being tested every other day. After 6 days of treatment, the cells were harvested and counted with a Coulter counter (Coulter Electronics, Hialeah, Fla.) as described by Liu et al., J. Natl. Cancer Inst., 86. 1758-1765, 1994; Tiwari et al., J. Natl, Cancer Inst. 86, 126-131, 1994. In some cases, 17-β-estradiol (E2) (1×10^-9 M) was also added in combination with the IC3 or DIM analogs.
__________________________________________________________________________
EFFECTS OF DIFFERENT CONCENTRATIONS OF I3C
AND SUBSTITUTED ANALOGS ON THE GROWTH
OF MCF-7 CELLS IN THE PRESENCF OF E2
% of E2-Induced Response (Conc. of I3C Analogs)
EFFECTS OF DIFFERENT CONCENTRATIONS OF DIM
AND SUBSTITUTED ANALOGS ON THE
GROWTH OF MCF-7 CELLS IN THE PRESENCE OF E2
% of E2-Induced Response (Conc. of DIM Analogs)

[1] = tested on: DMBA-induced mammary tumors; assay: Tumor growth in DMBA-induced mammary carcinoma model; format: in vivo, Sprague-Dawley rats; conditions: 10 treatments by gavage 5 mg/kg every other day, sacrificed day 21; mean ± standard error
EROD = EROD in rats of the DMBA-induced mammary carcinoma model; format: in vivo, Sprague-Dawley rats; conditions: 10 treatments by gavage 5 mg/kg every other day, sacrificed day 21; mean ± standard error
[2] = Toxic endpoints (organ weights) in rats of the DMBA-induced mammary carcinoma model; format: in vivo, Sprague-Dawley rats; conditions: 10 treatments by gavage 5 mg/kg every other day, sacrificed day 21, mean ± standard error; for Uterine Wet Weight: control 0.182 ± 0.016; for Liver Weight: control 4.07 ± 0.19
mammary tumors = conditions: oral, 20 hours prior to DMBA; cited from earlier work
[3] = tested on: estrogen-regulated tumors; conditions: cited from earlier work
[4] = tested on: DMBA-induced mammary tumor; conditions: dietary I3C; 20% Brussels sprouts; cited from earlier work
[5] = read-out: % of E2-Induced Response (Conc. of I3C Analogs)
[6] = read-out: % of E2-Induced Response (Conc. of DIM Analogs)

Compound | activity at 0.1 µM (MCF-7 cells; [5]) | activity at 1 µM (MCF-7 cells; [5]) | activity at 10 µM (MCF-7 cells; [5]) | activity at 50 µM (MCF-7 cells; [5]) | activity at 100 µM (MCF-7 cells; [5]) | activity at 0.01 µM (MCF-7 cells; [6]) | activity at 0.1 µM (MCF-7 cells; [6]) | activity at 1 µM (MCF-7 cells; [6]) | activity at 5 µM (MCF-7 cells; [6]) | activity at 10 µM (MCF-7 cells; [6]) | further results
Cc1c(CO)c2ccccc2n1C [1,2-Dimethyl-I3C] | 98 ± 5.68% | 94.4 ± 7.73% | 65.9 ± 2.86% | 0.35 ± 0.24% | 0.42 ± 0.14% |  |  |  |  |  | 
Brc1ccc2[nH]cc(Cc3c[nH]c4ccc(Br)cc34)c2c1 [5-Bromo-DIM, 5,5'-dibromo-diindolylmethane] |  |  |  |  |  | 99.03 ± 0.49% | 106 ± 3.38% | 75 ± 1.35% | 9.92 ± 0.58% | 0.3 ± 0.04% | 
OCc1c[nH]c2ccc(Br)cc12 [5-Bromo-I3C, 5-bromo-indole-3-carbinol] | 96.3 ± 6.97% | 97.3 ± 6.33% | 94.4 ± 2.47% | 59.6 ± 1.05% | 14.9 ± 0.72% |  |  |  |  |  | 
Clc1ccc2[nH]cc(Cc3c[nH]c4ccc(Cl)cc34)c2c1 [5-Chloro-DIM, 5,5'-dichloro-diindolylmethane] |  |  |  |  |  | 98.4 ± 11.2% | 98.3 ± 8.34% | 87.3 ± 5.98% | 0.75 ± 0.1% | 0.99 ± 0.27% | 
OCc1c[nH]c2ccc(Cl)cc12 [5-Chloro-I3C, 5-chloro-indole-3-carbinol] | 94 ± 11.2% | 92.4 ± 3.14% | 82.2 ± 4.55% | 29.8 ± 5.98% | 1.02 ± 0.22% |  |  |  |  |  | 
Fc1ccc2[nH]cc(Cc3c[nH]c4ccc(F)cc34)c2c1 [5-Fluoro-DIM, 5,5'-difluoro-diindolylmethane] |  |  |  |  |  | 90.3 ± 2.5% | 103 ± 2.63% | 77.1 ± 3.51% | 35.7 ± 5.13% | 8.46 ± 1.17% | Tumor Volume [1]: 35.8 ± 16.6 % Control; Tumor Weight [1]: 45.0 ± 20.0 % Control; EROD (EROD): 157.6 ± 22.1 % Control; Uterine Wet Weight [2]: 0.208 ± 0.044 % body weight; Liver Weight [2]: 4.30 ± 0.29 % body weight
COc1ccc2[nH]cc(Cc3c[nH]c4ccc(OC)cc34)c2c1 [5-Methoxy-DIM, 5,5'-dimethoxy-diindolylmethane] |  |  |  |  |  | 87.2 ± 3.52% | 89.4 ± 3.12% | 69.4 ± 3.95% | 37.1 ± 4.52% | 11.4 ± 1.63% | Tumor Volume [1]: 22.1 ± 4.4 % Control; Tumor Weight [1]: 22.1 ± 4.4 % Control; EROD (EROD): 151.2 ± 43.4 % Control; Uterine Wet Weight [2]: 0.224 ± 0.034 % body weight; Liver Weight [2]: 4.16 ± 0.23 % body weight
COc1ccc2[nH]cc(CO)c2c1 [5-Methoxy-I3C, 5-methoxy-indole-3-carbinol] | 87.6 ± 5.4% | 78.4 ± 11.9% | 58.9 ± 7.96% | 2.97 ± 0.2% | 0.61 ± 0.14% |  |  |  |  |  | 
Cc1ccc2[nH]cc(CO)c2c1 [5-Methyl-I3C, 5-methyl-indole-3-carbinol] | 87.8 ± 11.1% | 81.6 ± 10.8% | 53 ± 4.24% | 0.87 ± 0.11% | 0.57 ± 0.2% |  |  |  |  |  | 
O=[N+]([O-])c1ccc2[nH]cc(CO)c2c1 [5-Nitro-I3C] | 94.7 ± 2.05% | 92.7 ± 3.89% | 44.2 ± 3.34% | 1.71 ± 0.06% | 0.39 ± 0.06% |  |  |  |  |  | 
c1ccc2c(Cc3c[nH]c4ccccc34)c[nH]c2c1 [DIM, 3,3'diindolylmethane, reference compound] |  |  |  |  |  | 107 ± 8.43% | 97.3 ± 3.56% | 77 ± 5.16% | 22.5 ± 2.47% | 6.84 ± 0.71% | Tumor Volume [1]: 19.9 ± 5.8 % Control; Tumor Weight [1]: 23.7 ± 6.0 % Control; EROD (EROD): 106.1 ± 22.4 % Control; Uterine Wet Weight [2]: 0.184 ± 0.027 % body weight; Liver Weight [2]: 3.87 ± 0.22 % body weight; occurrence of mammary tumors (in words) (mammary tumors): inhibited the occurrence of mammary tumors
OCc1c[nH]c2ccccc12 [I3C, indole 3-carbinol, reference compound] | 100 ± 5.7% | 96.3 ± 3.23% | 83.9 ± 2.46% | 36.9 ± 0.65% | 8.15 ± 1% |  |  |  |  |  | occurrence of mammary tumors (in words) (mammary tumors): inhibited the occurrence of mammary tumors; formation or growth of estrogen-regulated tumors (in words) ([3]; rodent mammary, endometrium and uterus): inhibit formation or growth of estrogen-regulated tumors; mammary carcinogenesis (in words) ([3]; rodent models): inhibits mammary carcinogenesis in rodent models; DMBA-induced mammary tumor formation and progression (in words) [4]: inhibited DMBA-induced mammary tumor formation and progression
Cn1cc(Cc2cn(C)c3ccccc23)c2ccccc21 [N-Methyl-DIM, N,N'-dimethyl-diindolylmethane] |  |  |  |  |  | 82.8 ± 10.8% | 96.4 ± 2.94% | 78.5 ± 3.03% | 3.92 ± 0.49% | 0.85 ± 0.12% | 
Cn1cc(CO)c2ccccc21 [N-Methyl-I3C, N-methyl-indole-3-carbinol] | 95.6 ± 4.26% | 96.2 ± 1.66% | 47.8 ± 2.13% | 14.4 ± 0.9% | 3.91 ± 0.64% |  |  |  |  |  | 
